US8138205B2, “Heteroarylalkoxy-substituted quinolone inhibitors of PDE4” (Kalypsys, Inc., priority 2006, dated 2012)

Experiments:
Stability Protocol = type: physicochemical; conditions: pH 7.4 sodium phosphate buffer, preliminary shelf life (T90) estimated from stressed samples
Method: About 3 mg of a compound was dissolved in 3 mL of acetonitrile/water mixture (50/50). 100 μL of the stock solution was added to 20 mL each of 0.025 M pH 5.0 sodium acetate buffer (A5.0), 0.025 M pH 5.0 citrate buffer (C5.0) and 0.025 M pH 7.4 sodium phosphate buffer (P7.4). A two mL aliquot of each solution was kept in a glass vial equipped a cap lined with Teflon. Two vials containing the solution were stored at 4° C. or −20° C. as control. Other aliquots were stressed at RT, 45° C. or 75° C. for specified time check points, e.g. 1 day, 1 w, 2 w, 4 w, 8 w,12 w. The stressed samples in duplicate were assayed against the control using HPLC. The results were reported in % degradation. Preliminary shelf life (T90) was estimated assuming the rate of chemical degradation is double when the temperature is up 10° C.

PDE4B = biological target: T1, PDE4B (Homo sapiens, UniProt Q07343); experiment: PDE/AK Biological Activity Assay (coupled PDE/adenylate kinase bioluminescent assay); type: biochemical; conditions: catalytic domain of PDE4B, read-out: PDE4 Enzyme IC50
T1 construct: hex-histidine (His6) (N); made in house
T1 sequence (Q07343 330-659 limits assumed, species assumed): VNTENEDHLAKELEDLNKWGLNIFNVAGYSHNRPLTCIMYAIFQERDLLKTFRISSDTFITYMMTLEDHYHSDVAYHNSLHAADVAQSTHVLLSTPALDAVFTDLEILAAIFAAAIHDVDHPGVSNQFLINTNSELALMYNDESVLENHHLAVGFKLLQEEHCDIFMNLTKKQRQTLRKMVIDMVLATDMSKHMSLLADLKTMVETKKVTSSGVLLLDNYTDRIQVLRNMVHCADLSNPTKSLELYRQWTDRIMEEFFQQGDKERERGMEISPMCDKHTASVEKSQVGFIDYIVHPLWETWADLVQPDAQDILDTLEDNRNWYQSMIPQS
Text: Phosphodiesterases regulate the activity of the second messenger cyclic adenosine monophosphate (cAMP) by hydrolyzing cAMP to adenosine monophosphate (AMP). We developed a coupled PDE/AK bioluminescent high-throughput assay to measure the activity of phosphodiesterases. In the PDE/AK assay, the AMP produced from the hydrolysis of cAMP by phosphodiesterase is converted to adenosine diphosphate (ADP) by the phosphotransferase activity of adenylate kinase (also known as ADK or myokinase). Adenylate kinase will catalyze the conversion of 1 mole of AMP and 1 mole of ATP into 2 moles of ADP. Thus the conversion of AMP to ADP will result in the subsequent loss of ATP. The decrease in ATP concentration can be monitored as light output using luciferase in a reaction that requires ATP to produce light. The PDE/AK assay uses luciferase, which catalyzes the production of light from ATP present in the reaction mix. The amount of emitted light is inversely proportional to the level of AMP present in the reaction. Test compounds are incubated with the phosphodiesterases and phosphodiesterase inhibitors will decrease the rate of cAMP hydrolysis and decrease the subsequent production of AMP. Thus phosphodiesterase inhibitors will decrease the conversion of ATP to ADP and result in the greatest emission of light.
Compounds may be screened for functional potency in in vitro biochemical assays for their ability to inhibit the activity of phosphodiesterase (PDE) enzymes. A coupled PDE/AK assay was utilized to measure the inhibitory activity of compounds on PDE isoforms. The catalytic domain of PDE4B was fused to an amino-terminus hex-histidine affinity tag and purified. PDE4B enzyme was incubated with compounds for 10 minutes. Cyclic AMP substrate, ATP and adenylate kinase were then added to the PDE enzyme mix and incubated for 45 minutes at room temperature. A commercial ATP detection assay, Perkin Elmer's easyLite ATP detection reagent, was then added to measure the relative amount of ATP present in the reaction. After 10 minute incubation, the luminescent signal was quantitated with either the Perkin Elmer Viewlux or Molecular Devices Acquest or Analyst. Roflumilast and Rolipram are the positive controls used in the assay.

Solubility Protocol = type: physicochemical; conditions: aqueous buffer, thermodynamic from solid; pH 7.4, 0.1 M sodium phosphate buffer
Method: About 5 mg of a compound was mixed with 500 μL of pH 7.4, 0.1 M sodium phosphate buffer. The mixture was adjusted to the original pH of 7.4 and then mixed overnight or longer via rotary mixing. The sample was checked for pH and then filtered through a 0.45 μm filter. If the pH drifted away, the sample was adjusted to its original pH and mixed for at least 15 minutes before filtration. The filtrate was analyzed using HPLC.

Rabbits = experiment: Lacrimal Gland Inflammation-Induced Dry Eye in Rabbits (corneal staining, tear breakup time); type: in vivo; conditions: topical ocular BID, rabbit ConA dry eye
Text: A more detailed description of the assay used herein may be found in Naglehout, T J et al. 2005, “Preservation of Tear Film Integrity and Inhibition of Corneal Injury by Dexamethasone in a Rabbit Model of Lacrimal Gland Inflammation-Induced Dry Eye,” J. Ocular Pharm. Ther., 21:2. 139-148, the disclosure of which is hereby incorporated by reference as if written herein in its entirety.
Rabbits (n=4/group) were randomized into treatment groups and dosed topically BID with maxidex vehicle or test drug beginning one day prior to initiation of dry eye. Each rabbit received bilateral lacrimal gland injections of saline or ConA (300 μg/30 μl) and topical ocular dosing was continued BID throughout the study.
Desiccation was initiated 1-2 hours following lacrimal gland injection by placing conscious rabbits in the environmental chamber (10-15% humidity/72° F.). Following 72 consecutive hours of exposure to this dry environment, the animals were anesthetized and sutures were placed in each upper and lower eyelid and lifted to form a corneal/conjunctival cup. Methylene blue dye (1 mL, 1% in dH2O) was added to the cup for three minutes and the excess removed by washing with 200 mL BSS®. The contralateral eye was then stained using the same procedure. Rabbits were euthanized immediately following the staining procedure and the eyes were excised. The corneas were isolated with a trephine and the 9.5-mm punch of the cornea was placed in 2 mL acetone/saturated sodium sulfate (7:3, vol./vol.). Absorbance of the extracted dye was determined at 660 nm.
TBUT was quantified in a separate group of treated animals. TBUT was determined by instilling 5 μL sodium fluorescein into the cul de sac and manually blinking the lids to distribute the fluorescein within the tear film. Under slit lamp observation, the eye was held open and the time whereby one or more black spots or streaks appeared in the precorneal tear film was recorded. The rabbits were euthanized 3 days following ConA injection.

| SMILES | Stability, pH 7.4 (Stability Protocol) | IC50 (PDE4B) [nM] | solubility (Solubility Protocol) [µg/mL] | Activity at Percent Concentration Tested (Rabbits; 1 × 10^−2 percent) | Activity at Percent Concentration Tested (Rabbits; 1 × 10^−4 percent) | Activity at Percent Concentration Tested (Rabbits; 1 × 10^−6 percent) |
| --- | --- | --- | --- | --- | --- | --- |
| COc1ccc2c(Nc3c(Cl)cncc3Cl)cc(=O)[nH]c2c1OCCCCCCCN1CCN(C)CC1 [Example 20, 4-(3,5-dichloropyridin-4-ylamino)-7-methoxy-8-(7-(4-methylpiperazin-1-yl)heptyloxy)quinolin-2(1H)-one] | + (+ indicates ≧1 Year) | < 1000 | ≥ 1000 |  |  |  |
| COc1ccc2c(Nc3c(Cl)cncc3Cl)cc(=O)[nH]c2c1OCCCCC(=O)O [Example 52, 5-(4-(3,5-dichloropyridin-4-ylamino)-7-methoxy-2-oxo-1,2-dihydroquinolin-8-yloxy)pentanoic acid] | + (+ indicates ≧1 Year) | < 1000 | ≥ 1000 |  |  |  |
| COc1ccc2c(Nc3c(C)cncc3C)cc(=O)[nH]c2c1OCCCCCCN(C)C [Example 38, 8-(6-(Dimethylamino)hexyloxy)-4-(3,5-dimethylpyridin-4-ylamino)-7-methoxyquinolin-2(1H)-one] | + (+ indicates ≧1 Year) | < 1000 | ≥ 1000 |  |  |  |
| COc1ccc2c(Nc3c(Cl)cncc3Cl)cc(=O)[nH]c2c1OCCCCCC(N)=O [Example 58, 6-(4-(3,5-dichloropyridin-4-ylamino)-7-methoxy-2-oxo-1,2-dihydroquinolin-8-yloxy)hexanamide] | + (+ indicates ≧1 Year) | < 1000 | ≥ 1000 |  |  |  |
| COc1ccc2c(Nc3c(Cl)cncc3Cl)cc(=O)[nH]c2c1OCCCCCN(C)C [Example 14, 4-(3,5-Dichloropyridin-4-ylamino)-8-(5-(dimethylamino)pentyloxy)-7-methoxyquinolin-2(1H)-one] | + (+ indicates ≧1 Year) |  | ≥ 1000 |  |  |  |
| COc1ccc2c(Nc3c(Cl)cncc3Cl)cc(=O)[nH]c2c1OCCCCCCN1CCNCC1 [Example 22, 4-(3,5-Dichloropyridin-4-ylamino)-7-methoxy-8-(6-(piperazin-1-yl)hexyloxy)quinolin-2(1H)-one] | + (+ indicates ≧1 Year) | < 1000 | ≥ 1000 |  |  |  |
| COc1ccc2c(Nc3c(Cl)cncc3Cl)cc(=O)[nH]c2c1OCCCCCC(=O)O [Example 11, 6-(4-(3,5-Dichloropyridin-4-ylamino)-7-methoxy-2-oxo-1,2-dihydroquinolin-8-yloxy)hexanoic acid] | + (+ indicates ≧1 Year) |  | ≥ 1000 |  |  |  |
| COc1ccc2c(Nc3c(Cl)cncc3Cl)cc(=O)[nH]c2c1OCCCCCCCCN1CCN(C)CC1 [Example 21, 4-(3,5-dichloropyridin-4-ylamino)-7-methoxy-8-(8-(4-methylpiperazin-1-yl)octyloxy)quinolin-2(1H)-one] | + (+ indicates ≧1 Year) | < 1000 | ≥ 1000 |  |  |  |
| COc1ccc2c(Nc3c(C)cncc3C)cc(=O)[nH]c2c1OCCCCCCN1CCOCC1 [Example 35, 4-(3,5-Dimethylpyridin-4-ylamino)-7-methoxy-8-(6-morpholinohexyloxy)quinolin-2(1H)-one] | + (+ indicates ≧1 Year) | < 1000 | ≥ 1000 |  |  |  |
| COc1ccc2c(Nc3c(Cl)cncc3Cl)cc(=O)[nH]c2c1OCCCCCCC(=O)O [Example 53, 7-(4-(3,5-dichloropyridin-4-ylamino)-7-methoxy-2-oxo-1,2-dihydroquinolin-8-yloxy)heptanoic acid] | + (+ indicates ≧1 Year) | < 1000 | ≥ 1000 |  |  |  |
| COc1ccc2c(Nc3c(Cl)cncc3Cl)cc(=O)[nH]c2c1OCCCCCCN1CCOCC1 [Example 16, 4-(3,5-Dichloropyridin-4-ylamino)-7-methoxy-8-(6-morpholinohexyloxy)quinolin-2(1H)-one] | + (+ indicates ≧1 Year) | < 1000 | ≥ 1000 |  |  |  |
| COc1ccc2c(Nc3c(Cl)cncc3Cl)cc(=O)[nH]c2c1OCCCCCCCC(=O)O [Example 54, 8-(4-(3,5-dichloropyridin-4-ylamino)-7-methoxy-2-oxo-1,2-dihydroquinolin-8-yloxy)octanoic acid] | + (+ indicates ≧1 Year) | < 1000 | ≥ 1000 |  |  |  |

Continued, in another order:

| Stability, pH 7.4 (Stability Protocol) | IC50 (PDE4B) [nM] | solubility (Solubility Protocol) [µg/mL] | SMILES | Activity at Percent Concentration Tested (Rabbits; 1 × 10^−2 percent) | Activity at Percent Concentration Tested (Rabbits; 1 × 10^−4 percent) | Activity at Percent Concentration Tested (Rabbits; 1 × 10^−6 percent) |
| --- | --- | --- | --- | --- | --- | --- |
| + (+ indicates ≧1 Year) | < 1000 | ≥ 1000 | COc1ccc2c(Nc3c(Cl)cncc3Cl)cc(=O)[nH]c2c1OCCCCC(N)=O [Example 57, 5-(4-(3,5-dichloropyridin-4-ylamino)-7-methoxy-2-oxo-1,2-dihydroquinolin-8-yloxy)pentanamide] |  |  |  |
| + (+ indicates ≧1 Year) | < 1000 | ≥ 1000 | COc1ccc2c(Nc3c(Cl)cncc3Cl)cc(=O)[nH]c2c1OCCCCCCN1CCN(C)CC1 [Example 15, 4-(3,5-Dichloropyridin-4-ylamino)-7-methoxy-8-(6-(4-methylpiperazin-1-yl)hexyloxy)quinolin-2(1H)-one] |  |  |  |
| + (+ indicates ≧1 Year) | < 1000 | ≥ 1000 | COc1ccc2c(Nc3c(Cl)cncc3Cl)cc(=O)[nH]c2c1OCCCN1CCN(C)CC1 [Example 18, 4-(3,5-dichloropyridin-4-ylamino)-7-methoxy-8-(3-(4-methylpiperazin-1-yl)propoxy)quinolin-2(1H)-one] |  |  |  |
| + (+ indicates ≧1 Year) | < 1000 | ≥ 1000 | COc1ccc2c(Nc3c(Cl)cncc3Cl)cc(=O)[nH]c2c1OCCCN1CCOCC1 [Example 19, 4-(3,5-dichloropyridin-4-ylamino)-7-methoxy-8-(3-morpholinopropoxy)quinolin-2(1H)-one] |  |  |  |
| + (+ indicates ≧1 Year) | < 1000 | ≥ 1000 | COc1ccc2c(Nc3c(Cl)cncc3Cl)cc(=O)[nH]c2c1OCCCC(N)=O [Example 56, 4-(4-(3,5-dichloropyridin-4-ylamino)-7-methoxy-2-oxo-1,2-dihydroquinolin-8-yloxy)butanamide] |  |  |  |
| + (+ indicates ≧1 Year) |  |  | COc1ccc2c(Nc3c(C)cncc3C)cc(=O)[nH]c2c1OCC1CC1 [Example 8, 8-(Cyclopropylmethoxy)-4-(3,5-dimethylpyridin-4-ylamino)-7-methoxyquinolin-2(1H)-one] | Inactive | Inactive | Inactive |
